From publication PMC8799717, “Pharmacological targeting PIKfyve and tubulin as an effective treatment strategy for double-hit lymphoma” (Cell Death Discovery, 2022)

Assays:
Experiment in all cases: biochemical
Set-up in all cases: KINOMEscan active-site-directed competition binding panel, 468 kinases, percent of DMSO control at 1 uM
Settings in all cases: KINOMEscan binding, percent of DMSO control; read-out: Ctrl%
[1] = molecular target: T1, YANK2 (Homo sapiens, UniProt Q9NY57)
T1 construct: gene STK32B

[2] = molecular target: T2, JNK2 (Homo sapiens, UniProt P45984)
T2 construct: gene MAPK9
T2 sequence (P45984 whole entry): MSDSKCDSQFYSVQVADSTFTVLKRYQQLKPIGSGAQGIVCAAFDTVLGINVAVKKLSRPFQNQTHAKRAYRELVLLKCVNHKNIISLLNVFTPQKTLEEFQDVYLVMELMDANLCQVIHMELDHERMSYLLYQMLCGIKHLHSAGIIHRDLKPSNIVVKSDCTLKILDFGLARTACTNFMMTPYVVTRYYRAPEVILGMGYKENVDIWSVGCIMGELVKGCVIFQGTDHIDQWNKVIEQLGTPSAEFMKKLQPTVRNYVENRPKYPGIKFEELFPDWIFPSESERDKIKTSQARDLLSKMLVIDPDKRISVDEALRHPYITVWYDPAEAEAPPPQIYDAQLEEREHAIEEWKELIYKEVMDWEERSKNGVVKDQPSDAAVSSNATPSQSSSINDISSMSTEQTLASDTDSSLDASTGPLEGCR

[3] = molecular target: MAP3K4 (Homo sapiens, UniProt Q9Y6R4)
[4] = molecular target: PIM2 (Homo sapiens, UniProt Q9P1W9)
[5] = molecular target: RET(V804L) (Homo sapiens, UniProt P07949, V804L)
[6] = molecular target: SGK2 (Homo sapiens, UniProt Q9HBY8)
[7] = molecular target: T3, ABL1(H396P)-nonphosphorylated (Homo sapiens, UniProt P00519, H396P)
T3 construct: nonphosphorylated

[8] = molecular target: ALK (Homo sapiens, UniProt Q9UM73)
Chain of ALK (Q9UM73 whole entry): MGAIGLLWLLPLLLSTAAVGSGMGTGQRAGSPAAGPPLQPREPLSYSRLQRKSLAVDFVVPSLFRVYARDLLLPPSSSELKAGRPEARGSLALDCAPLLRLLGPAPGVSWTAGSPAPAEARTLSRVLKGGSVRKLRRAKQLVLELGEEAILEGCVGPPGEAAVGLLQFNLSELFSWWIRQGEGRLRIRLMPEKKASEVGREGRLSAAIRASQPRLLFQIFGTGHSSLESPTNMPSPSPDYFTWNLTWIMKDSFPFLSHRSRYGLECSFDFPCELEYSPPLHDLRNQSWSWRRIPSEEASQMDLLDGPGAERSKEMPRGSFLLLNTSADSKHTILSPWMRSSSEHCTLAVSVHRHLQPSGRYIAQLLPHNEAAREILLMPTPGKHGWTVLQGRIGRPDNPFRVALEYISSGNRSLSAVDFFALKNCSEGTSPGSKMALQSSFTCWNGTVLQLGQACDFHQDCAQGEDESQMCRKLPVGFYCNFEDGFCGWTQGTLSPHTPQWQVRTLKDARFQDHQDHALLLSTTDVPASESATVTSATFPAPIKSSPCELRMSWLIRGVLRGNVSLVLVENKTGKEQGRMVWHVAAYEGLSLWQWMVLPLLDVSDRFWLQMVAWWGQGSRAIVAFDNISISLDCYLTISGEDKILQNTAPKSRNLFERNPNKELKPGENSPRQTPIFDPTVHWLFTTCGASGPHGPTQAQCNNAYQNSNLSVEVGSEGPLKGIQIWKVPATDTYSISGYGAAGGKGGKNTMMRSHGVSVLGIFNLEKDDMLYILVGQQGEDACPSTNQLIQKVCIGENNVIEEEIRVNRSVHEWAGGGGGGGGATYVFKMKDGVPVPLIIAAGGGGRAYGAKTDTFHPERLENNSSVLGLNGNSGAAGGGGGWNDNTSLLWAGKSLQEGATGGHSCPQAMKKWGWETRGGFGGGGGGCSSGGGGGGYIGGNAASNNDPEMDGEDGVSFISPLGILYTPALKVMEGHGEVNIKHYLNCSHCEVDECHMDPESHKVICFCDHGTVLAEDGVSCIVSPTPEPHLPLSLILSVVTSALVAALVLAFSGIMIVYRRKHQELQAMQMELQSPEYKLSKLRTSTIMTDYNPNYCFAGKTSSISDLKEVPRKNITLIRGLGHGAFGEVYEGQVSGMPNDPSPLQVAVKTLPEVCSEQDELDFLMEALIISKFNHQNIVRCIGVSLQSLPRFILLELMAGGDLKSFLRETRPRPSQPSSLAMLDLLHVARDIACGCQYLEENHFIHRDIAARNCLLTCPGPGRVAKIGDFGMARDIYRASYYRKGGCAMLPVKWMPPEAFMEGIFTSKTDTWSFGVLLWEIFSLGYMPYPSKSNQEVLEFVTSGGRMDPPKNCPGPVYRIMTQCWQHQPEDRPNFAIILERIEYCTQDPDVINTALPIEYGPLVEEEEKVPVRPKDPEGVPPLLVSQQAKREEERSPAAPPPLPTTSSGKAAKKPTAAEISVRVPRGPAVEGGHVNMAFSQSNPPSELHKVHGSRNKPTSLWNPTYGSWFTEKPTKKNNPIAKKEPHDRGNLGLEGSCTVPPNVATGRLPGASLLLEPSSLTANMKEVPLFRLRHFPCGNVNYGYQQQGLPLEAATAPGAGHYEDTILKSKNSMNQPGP

[9] = molecular target: T4, IKK-epsilon (Homo sapiens, UniProt Q14164)
T4 construct: gene IKBKE
T4 sequence (Q14164 whole entry): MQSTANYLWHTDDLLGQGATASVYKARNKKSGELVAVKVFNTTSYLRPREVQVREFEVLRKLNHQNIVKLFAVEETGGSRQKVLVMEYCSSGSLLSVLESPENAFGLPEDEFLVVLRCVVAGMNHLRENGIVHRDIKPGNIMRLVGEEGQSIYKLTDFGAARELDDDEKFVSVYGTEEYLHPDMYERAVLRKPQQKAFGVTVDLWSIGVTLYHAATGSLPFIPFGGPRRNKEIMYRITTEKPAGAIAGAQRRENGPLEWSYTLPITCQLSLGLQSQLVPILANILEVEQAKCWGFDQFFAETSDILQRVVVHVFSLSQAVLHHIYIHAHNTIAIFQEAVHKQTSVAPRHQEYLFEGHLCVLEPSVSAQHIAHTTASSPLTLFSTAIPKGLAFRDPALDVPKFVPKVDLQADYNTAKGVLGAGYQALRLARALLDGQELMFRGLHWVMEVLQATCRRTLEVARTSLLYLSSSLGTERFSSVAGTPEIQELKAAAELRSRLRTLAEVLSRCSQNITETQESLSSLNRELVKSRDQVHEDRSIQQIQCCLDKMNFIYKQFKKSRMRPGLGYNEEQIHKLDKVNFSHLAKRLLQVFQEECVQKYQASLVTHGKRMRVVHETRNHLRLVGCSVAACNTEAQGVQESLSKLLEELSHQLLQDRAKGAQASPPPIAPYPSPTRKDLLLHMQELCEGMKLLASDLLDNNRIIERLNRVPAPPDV

[10] = molecular target: CAMK2B (Homo sapiens, UniProt Q13554)
[11] = molecular target: T5, LOK (Homo sapiens, UniProt O94804)
T5 construct: gene STK10
T5 sequence (O94804 whole entry): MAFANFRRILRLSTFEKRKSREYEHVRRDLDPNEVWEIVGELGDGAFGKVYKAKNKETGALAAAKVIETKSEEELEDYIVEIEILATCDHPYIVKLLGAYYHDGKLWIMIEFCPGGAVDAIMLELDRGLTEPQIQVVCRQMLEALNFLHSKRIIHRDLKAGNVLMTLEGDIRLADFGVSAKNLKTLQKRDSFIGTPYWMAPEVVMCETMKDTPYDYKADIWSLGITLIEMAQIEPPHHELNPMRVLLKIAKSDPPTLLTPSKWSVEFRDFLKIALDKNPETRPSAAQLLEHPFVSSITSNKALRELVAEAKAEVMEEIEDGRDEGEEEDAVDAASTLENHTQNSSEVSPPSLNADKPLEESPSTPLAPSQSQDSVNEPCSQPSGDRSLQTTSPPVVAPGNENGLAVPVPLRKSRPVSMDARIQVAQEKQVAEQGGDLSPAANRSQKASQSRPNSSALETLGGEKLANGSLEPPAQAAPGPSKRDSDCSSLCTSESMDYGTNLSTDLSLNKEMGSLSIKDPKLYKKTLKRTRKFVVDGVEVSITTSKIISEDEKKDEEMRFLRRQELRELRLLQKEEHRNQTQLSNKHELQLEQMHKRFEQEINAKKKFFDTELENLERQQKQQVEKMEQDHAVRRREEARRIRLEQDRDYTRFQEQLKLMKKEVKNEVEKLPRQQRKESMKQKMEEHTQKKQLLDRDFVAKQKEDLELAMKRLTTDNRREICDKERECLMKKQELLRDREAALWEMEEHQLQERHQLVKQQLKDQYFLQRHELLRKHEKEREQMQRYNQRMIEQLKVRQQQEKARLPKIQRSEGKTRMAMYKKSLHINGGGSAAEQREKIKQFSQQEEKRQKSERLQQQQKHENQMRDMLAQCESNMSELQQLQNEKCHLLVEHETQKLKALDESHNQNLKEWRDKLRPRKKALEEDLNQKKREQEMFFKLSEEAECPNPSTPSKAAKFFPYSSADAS

[12] = molecular target: PIK3CD (Homo sapiens, UniProt O00329)
[13] = molecular target: TESK1 (Homo sapiens, UniProt Q15569)
Chain of TESK1 (Q15569 whole entry): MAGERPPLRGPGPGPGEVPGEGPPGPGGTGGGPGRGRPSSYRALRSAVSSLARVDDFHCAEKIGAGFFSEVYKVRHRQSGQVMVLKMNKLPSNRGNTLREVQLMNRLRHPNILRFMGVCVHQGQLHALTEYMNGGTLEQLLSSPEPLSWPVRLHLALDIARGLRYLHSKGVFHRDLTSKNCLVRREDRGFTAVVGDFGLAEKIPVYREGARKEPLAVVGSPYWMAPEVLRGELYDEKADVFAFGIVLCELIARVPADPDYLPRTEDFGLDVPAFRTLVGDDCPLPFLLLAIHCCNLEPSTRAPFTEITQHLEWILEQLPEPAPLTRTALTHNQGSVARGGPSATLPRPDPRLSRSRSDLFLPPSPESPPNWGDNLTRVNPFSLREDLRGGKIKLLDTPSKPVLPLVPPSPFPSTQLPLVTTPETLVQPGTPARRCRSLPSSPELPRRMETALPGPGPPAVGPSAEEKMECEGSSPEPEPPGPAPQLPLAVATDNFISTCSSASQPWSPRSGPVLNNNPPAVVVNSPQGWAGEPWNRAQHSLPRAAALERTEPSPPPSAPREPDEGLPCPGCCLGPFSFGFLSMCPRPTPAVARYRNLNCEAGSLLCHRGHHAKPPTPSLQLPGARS

[14] = molecular target: T6, TIE2 (Homo sapiens, UniProt Q02763)
T6 construct: gene TEK

[15] = molecular target: ROCK2 (Homo sapiens, UniProt O75116)
[16] = molecular target: AURKA (Homo sapiens, UniProt O14965)
Chain of AURKA (O14965 whole entry): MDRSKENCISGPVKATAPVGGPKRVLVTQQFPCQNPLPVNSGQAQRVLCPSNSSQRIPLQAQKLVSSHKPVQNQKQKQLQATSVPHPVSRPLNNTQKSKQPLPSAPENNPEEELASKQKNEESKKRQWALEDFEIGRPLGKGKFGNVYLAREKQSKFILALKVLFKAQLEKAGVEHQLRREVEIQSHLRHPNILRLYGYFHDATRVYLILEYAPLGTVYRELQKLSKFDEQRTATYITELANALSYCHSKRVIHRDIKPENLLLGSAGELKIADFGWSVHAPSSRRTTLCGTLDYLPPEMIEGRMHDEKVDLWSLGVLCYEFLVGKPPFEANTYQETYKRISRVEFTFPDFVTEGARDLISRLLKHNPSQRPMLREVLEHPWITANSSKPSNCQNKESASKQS

[17] = molecular target: T7, PYK2 (Homo sapiens, UniProt Q14289)
T7 construct: gene PTK2B

[18] = molecular target: PIK3CB (Homo sapiens, UniProt P42338)
[19] = molecular target: CLK4 (Homo sapiens, UniProt Q9HAZ1)
[20] = molecular target: CDKL5 (Homo sapiens, UniProt O76039)
[21] = molecular target: TSSK3 (Homo sapiens, UniProt Q96PN8)
Chain of TSSK3 (Q96PN8 whole entry): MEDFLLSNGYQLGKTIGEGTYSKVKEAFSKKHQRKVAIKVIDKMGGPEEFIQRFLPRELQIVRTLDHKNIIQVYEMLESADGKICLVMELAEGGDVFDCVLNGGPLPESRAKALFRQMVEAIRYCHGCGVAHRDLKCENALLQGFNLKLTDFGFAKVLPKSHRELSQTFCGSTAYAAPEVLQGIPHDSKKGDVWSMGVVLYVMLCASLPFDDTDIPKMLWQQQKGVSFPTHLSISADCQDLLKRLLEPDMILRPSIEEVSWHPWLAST

[22] = molecular target: T8, JNK1 (Homo sapiens, UniProt P45983)
T8 construct: gene MAPK8

[23] = molecular target: CDKL1 (Homo sapiens, UniProt Q00532)
[24] = molecular target: ALK(L1196M) (Homo sapiens, UniProt Q9UM73, L1196M)
Chain of ALK(L1196M) (Q9UM73 whole entry L1196M): as the sequence (Q9UM73 whole entry) above, with L1196M counted along it

Cc1ccc(NC(=O)c2cccc(C(F)(F)F)c2)cc1Nc1cc(-c2cccnc2)nc2[nH]ccc12 [HZX-02-059]
remaining binding at 1 µM [1]: 100%
remaining binding at 1 µM [2]: 99%
remaining binding at 1 µM [3]: 100%
remaining binding at 1 µM [4]: 88%
remaining binding at 1 µM [5]: 100%
remaining binding at 1 µM [6]: 99%
remaining binding at 1 µM [7]: 55%
remaining binding at 1 µM [8]: 100%
remaining binding at 1 µM [9]: 70%
remaining binding at 1 µM [10]: 94%
remaining binding at 1 µM [11]: 47%
remaining binding at 1 µM [12]: 97%
remaining binding at 1 µM [13]: 77%
remaining binding at 1 µM [14]: 66%
remaining binding at 1 µM [15]: 100%
remaining binding at 1 µM [16]: 100%
remaining binding at 1 µM [17]: 100%
remaining binding at 1 µM [18]: 74%
remaining binding at 1 µM [19]: 94%
remaining binding at 1 µM [20]: 90%
remaining binding at 1 µM [21]: 100%
remaining binding at 1 µM [22]: 84%
remaining binding at 1 µM [23]: 89%
remaining binding at 1 µM [24]: 97%
